Among the data in ChEMBL document CHEMBL1201862, “PubChem BioAssay data set” (2004) are IC50 values, retold here.

Calls of active or inactive are those of the source. No stated cut-off is given here; in the data, actives have a measured IC50 and inactives only a lower limit.

By IC50 is commonly meant the concentration at which inhibition is half-maximal.

Sequence of Envelope glycoprotein gp160 (Q6QLK5 whole entry, the tested form may be a part): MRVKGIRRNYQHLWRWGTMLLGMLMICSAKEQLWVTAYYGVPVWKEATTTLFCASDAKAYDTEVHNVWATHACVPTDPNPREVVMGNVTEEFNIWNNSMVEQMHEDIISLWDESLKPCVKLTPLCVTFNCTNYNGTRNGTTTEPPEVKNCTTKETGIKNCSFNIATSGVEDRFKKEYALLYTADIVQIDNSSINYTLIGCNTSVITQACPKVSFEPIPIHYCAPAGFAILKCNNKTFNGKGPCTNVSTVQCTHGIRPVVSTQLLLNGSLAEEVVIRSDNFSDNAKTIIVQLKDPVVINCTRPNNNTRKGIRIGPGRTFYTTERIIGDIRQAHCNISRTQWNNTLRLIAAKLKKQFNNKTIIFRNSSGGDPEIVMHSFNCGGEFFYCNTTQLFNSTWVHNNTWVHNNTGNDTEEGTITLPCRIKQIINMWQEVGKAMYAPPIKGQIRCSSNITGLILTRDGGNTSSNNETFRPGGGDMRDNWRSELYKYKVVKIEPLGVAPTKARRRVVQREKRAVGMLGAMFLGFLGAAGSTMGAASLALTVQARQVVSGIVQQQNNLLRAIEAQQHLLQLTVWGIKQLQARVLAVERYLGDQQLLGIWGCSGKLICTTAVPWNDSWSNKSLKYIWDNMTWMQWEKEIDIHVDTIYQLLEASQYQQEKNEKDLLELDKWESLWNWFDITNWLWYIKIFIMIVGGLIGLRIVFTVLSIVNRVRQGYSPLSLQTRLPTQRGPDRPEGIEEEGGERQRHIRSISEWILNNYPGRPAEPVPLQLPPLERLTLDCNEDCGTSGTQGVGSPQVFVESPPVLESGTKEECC

This assay has as its target Envelope glycoprotein gp160 (Human immunodeficiency virus 1, UniProt Q6QLK5). Kind of assay: cell-free HIV fusion peptide-binding blockers – biochemical, uHTS, fluorescence dequenching, […] (AID 1986).
Consider `CS(=O)(=O)C1=NSC2=NC(=O)/C(=C\c3cccn3-c3ccc(Cl)cc3)C(=N)N21`, for which the IC50 was 18.5 µM (active). In the case of `COc1cc([N+](=O)[O-])cc(/C=N/NC(=O)c2cc(-c3ccccc3)nc3ccccc23)c1O`, the half-maximal inhibitory concentration (IC50) was 30.3 µM (active).

Consider `CC(C)CS(=O)(=O)C1=NSC2=NC(=O)/C(=C\c3ccc(OC(=O)c4ccco4)cc3)C(=N)N21`, for which the half-inhibitory concentration (IC50) is 15.6 µM (active). Consider `CCOc1ccc(CCNC(=O)c2ccc3c(=O)[nH]c4c(C(=O)NC(C)C)sc(=S)n4c3c2)cc1`, for which the IC50 was 62.5 µM (active). The value for `CSc1ccc(C(c2c(C(=O)O)[nH]c3ccccc23)c2c(C(=O)O)[nH]c3ccccc23)cc1` was 8.99 µM (active).
